Source: patent publication US20250282779A1, “SUBSTITUTED 5,6,7,8-TETRAHYDROPYRIDO[2,3-D]PYRIMIDINE-2,4-DIONES FOR TREATING CARDIAC DISEASES” (MYOKARDIA, INC., priority 2018, published 2025)

What was measured:
bovine cardiac myosin [1] = target: T1, bovine cardiac myosin (Bos taurus (Bovine), UniProt Q9BE39); assay: Myosin inhibition assay (bcMF pCa 6 IC50); format: biochemical; details: bovine cardiac myofibrils, calcium giving 50% activation
Method: Myosin inhibition assay (bcMF pCa 6IC50 (μM))
Small molecule agents were assessed for their ability to inhibit the enzymatic activity of bovine cardiac myosin using a biochemical assay that couples the release of ADP (adenosine diphosphate) from cardiac myosin to an enzymatic coupling system consisting of pyruvate kinase and lactate dehydrogenase (PK/LDH) and monitoring the absorbance decrease of NADH (at 340 nm) as a function of time. PK converts ADP to ATP (adenosine triphosphate) by converting PEP (phosphoenolpyruvate) to pyruvate. Pyruvate is then converted to lactate by LDH by converting NADH (nicotinamide adenine dinucleotide) to NAD (oxidized nicotinamide adenine dinucleotide). The source of cardiac myosin was from bovine heart in the form of skinned myofibrils. Prior to testing small molecule agents, the bovine myofibrils were assessed for their calcium responsiveness and the calcium concentration that achieves a 50% activation of the myofibril system was chosen as the final condition for assessing the inhibitory activity of the small molecule agents. All enzymatic activity was measured in a buffered solution containing 12 mM PIPES (piperazine-N,N′-bis(2-ethanesulfonic acid), 2 mM magnesium chloride at pH 6.8 (PM12 buffer). Final assay conditions were 1 mg/mL of bovine cardiac myofibrils, 0.4 mM PK/LDH, 50 uM ATP, 0.1 mg/mL BSA (bovine serum albumin), 10 ppm antifoam, 2 mM BME, 0.5 mM NADH, and 1.5 mM PEP at the desired free calcium concentration required to achieve 50% activation of the myofibrils.
A dilution series of compound was created in DMSO such that the final desired concentration of compound would be achieved in a volume of 30 μL with a fixed DMSO concentration of 3.3% (v/v). Typically 1 μL of the dilution series were added to 384 well plate to achieve a 10 point dose response. Following the addition of 14 μL of a solution containing bovine cardiac myofibrils, PK/LDH and a solution of calcium (that achieved 50% activation), the enzymatic reaction was started with the addition of 15 μL of a solution containing ATP, PEP and NADH. The reaction progress was followed in a PerkinElmer Envision plate reader at ambient temperature using clear bottom plates. The plate reader was configured to read absorbance at 340 nm in kinetics mode for 15 minutes. Data were recorded as the slope of the absorbance response to time. The slopes of the absorbance response as a function of time were normalized to slopes on the plate containing DMSO. This normalized rate was then plotted as a function of small molecule concentration and the data was fitted to a four-parameter fit using EXCEL XLfit. The IC50 is the concentration at which fifty percent of the total response is inhibited.

bovine cardiac myosin [2] = target: T1, bovine cardiac myosin; assay: Myosin inhibition assay (bcMF serum pCa 6 IC50), 10% human serum; format: biochemical; details: in the presence of 10% human serum
Excerpt: Myosin Inhibition Assay (bcMF Serum pCa 6 IC50 (μM))
Inhibition of the enzymatic activity of bovine cardiac myosin associated with the release of ADP (adenosine diphosphate) at the calcium concentrate that achieves a 50% activation of the bovine cardiac myofibril system in the presence of 10% human serum. The procedure was the same as that bovin cardiac myosin inhibition assay (bcMF pCa 6 IC50 (μM)) but with the addition of 10% human serum.

rabbit skeletal myosin = assay: Myosin inhibition assay (rbskMF pCa 6 IC50); format: biochemical; details: cardiac vs rabbit skeletal myofibrils
Excerpt: Myosin inhibition assay (rbskMF pCa 6 IC50 (μM))
Inhibition of the enzymatic activity of rabbit skeletal myosin associated with the release of ADP (adenosine diphosphate) at the calcium concentrate that achieves a 50% activation of the rabbit skeletal myofibril system. The procedure was the same as that of bovin cardiac myosin inhibition assay (bcMF pCa 6 IC50 (μM)) by replacing bovine cardiac myofibril with rabbit skeletal myofibril.

[3] = Reactive metabolite identification (glutathione adducts); format: in vitro ADME, human
Method: Reactive Metabolite Identification
In vitro determination of reactive metabolite formation for small molecules by detection of glutathione adducts formed in vitro in incubations with human liver microsomes fortified with NADPH and glutathione.
Methods: The metabolism of small molecules (30 μM) for glutathione adduct formation was assessed in incubations (200 μL volume, […], 60 min incubation time) with liver microsomes from human (1 mg/mL protein) conducted in potassium phosphate buffer (0.1 M, pH 7.4) for 1 h at 37° C. in a 96-well plate (2 mL well volume) and were performed in the absence of NADPH (used as a negative control) and in the presence of NADPH (1 mM) and glutathione (GSH, 10 mM). Incubations with liver microsomes were performed in a shaking water bath incubator with slow horizontal shaking (30 rpm). To obtain 30 μM incubation concentration of a compound, a 3 mM substrate stock solution in DMSO was used. Final incubation mixtures contained 148 μL of potassium phosphate buffer, 10 μL of liver microsome solution (20 mg protein/mL), 2 μL of the 3 mM substrate solution and where incubations were initiated by the addition of 40 μL of NADPH solution (5 mM dissolved in potassium phosphate buffer). Non-NADPH containing incubations were supplemented with 40 μL of potassium phosphate buffer. Post-incubation, reactions were terminated by adding an equal volume of acetonitrile containing 20 nM carbamazepine internal standard and 3% formic acid. Quenched samples then were centrifuged (4,600 rpm, 4° C., 10-min) after which the supernatants were transferred to a 96-well LC-MS sample analysis plate and diluted with one volume equivalent of HPLC-grade water, and then heat sealed with aluminum foil prior to analysis by liquid chromatography/mass spectrometry (LC-MS/MS).
Analyte identification: The LC-MS/MS detection (with in-line UV detection at 280 nm) of test compounds and potential GSH-adducts was focused on extracting selected ion chromatographic profiles using the protonated molecular ion MH^+ m/z for parent to 4 decimal places, and corresponding protonated molecular ions of predicted GSH-adduct metabolites (m/z MH^+ parent+305.0681 amu) using Xcalibur software (version 2.1.0, Thermo Fisher Scientific, Waltham, MA). Relative GSH-adduct abundance in vitro in liver microsome extracts was assessed using the LC/UV absorbance at 280 nm peak area ratio obtained by using Xcalibur software (version 2.1.0) between the detected GSH-adducts from NADPH- and GSH-fortified incubation extracts and the corresponding LC/UV peak area of the parent compound from minus NADPH containing incubation extracts. The extent of GSH-adduct formation was determined by LC-MS/MS analysis with in-line LC-UV detection at 280 nm by dividing the glutathione-adduct LC/UV peak area by the LC/UV peak area of the corresponding parent HCM-1 NG analog determined from analysis of control (-NAPDH, -GSH) incubations extracts.
Materials: Pooled male human (HLM, 50 donors) liver microsomes were obtained from Bioreclamation IVT (Baltimore, MD). Glutathione (GSH) and NADPH were purchased from Sigma Chemical Co. (St. Louis, MO). All solvents used for liquid chromatography-tandem mass spectrometry (LC-MS/MS) analyses were of chromatographic grade.
LC-MS Conditions: Extracts from incubations with liver microsomes and hepatocytes were characterized by LC-MS and LC-MS/MS on a Thermo Electron LTQ Orbitrap XL mass spectrometer coupled with a Dionex UltiMate 3000 UHPLC containing in-line diode array detection and an OAS-3300TXRS Autosampler (40 μL injection volume). Electrospray ionization (ESI) was employed in the positive ion mode with the needle potential held at 5.01 kV, a sheath flow rate of 35.02, aux flow rate of 9.99, a current of 2.6 uA, a capillary temperature of 325° C., and a capillary voltage of 15.99. Vacuum conditions used were an ion gauge pressure used was 2.33×10^−5 Torr and a convection gauge pressure of 0.90 Torr. […]

physchem = details: pH 7.4, aqueous buffer, kinetic from dmso stock
Method: After shaking at room temperature for 1.5 h, the mixture was filtered under vacuum through a 96-well filter plate, which was pre-washed with 100 μL of 70% ethanol per well. Subsequently, 70 μL of the filtrate was added into a well in a 96-well reading plate, which was pre-loaded with 70 μL of DMSO per well. The concentration of the sample in a well was determined on the basis of the intergration on LC with UV detection as compared to the standard curve of each compound established in DMSO.

T1 sequence (Q9BE39 whole entry): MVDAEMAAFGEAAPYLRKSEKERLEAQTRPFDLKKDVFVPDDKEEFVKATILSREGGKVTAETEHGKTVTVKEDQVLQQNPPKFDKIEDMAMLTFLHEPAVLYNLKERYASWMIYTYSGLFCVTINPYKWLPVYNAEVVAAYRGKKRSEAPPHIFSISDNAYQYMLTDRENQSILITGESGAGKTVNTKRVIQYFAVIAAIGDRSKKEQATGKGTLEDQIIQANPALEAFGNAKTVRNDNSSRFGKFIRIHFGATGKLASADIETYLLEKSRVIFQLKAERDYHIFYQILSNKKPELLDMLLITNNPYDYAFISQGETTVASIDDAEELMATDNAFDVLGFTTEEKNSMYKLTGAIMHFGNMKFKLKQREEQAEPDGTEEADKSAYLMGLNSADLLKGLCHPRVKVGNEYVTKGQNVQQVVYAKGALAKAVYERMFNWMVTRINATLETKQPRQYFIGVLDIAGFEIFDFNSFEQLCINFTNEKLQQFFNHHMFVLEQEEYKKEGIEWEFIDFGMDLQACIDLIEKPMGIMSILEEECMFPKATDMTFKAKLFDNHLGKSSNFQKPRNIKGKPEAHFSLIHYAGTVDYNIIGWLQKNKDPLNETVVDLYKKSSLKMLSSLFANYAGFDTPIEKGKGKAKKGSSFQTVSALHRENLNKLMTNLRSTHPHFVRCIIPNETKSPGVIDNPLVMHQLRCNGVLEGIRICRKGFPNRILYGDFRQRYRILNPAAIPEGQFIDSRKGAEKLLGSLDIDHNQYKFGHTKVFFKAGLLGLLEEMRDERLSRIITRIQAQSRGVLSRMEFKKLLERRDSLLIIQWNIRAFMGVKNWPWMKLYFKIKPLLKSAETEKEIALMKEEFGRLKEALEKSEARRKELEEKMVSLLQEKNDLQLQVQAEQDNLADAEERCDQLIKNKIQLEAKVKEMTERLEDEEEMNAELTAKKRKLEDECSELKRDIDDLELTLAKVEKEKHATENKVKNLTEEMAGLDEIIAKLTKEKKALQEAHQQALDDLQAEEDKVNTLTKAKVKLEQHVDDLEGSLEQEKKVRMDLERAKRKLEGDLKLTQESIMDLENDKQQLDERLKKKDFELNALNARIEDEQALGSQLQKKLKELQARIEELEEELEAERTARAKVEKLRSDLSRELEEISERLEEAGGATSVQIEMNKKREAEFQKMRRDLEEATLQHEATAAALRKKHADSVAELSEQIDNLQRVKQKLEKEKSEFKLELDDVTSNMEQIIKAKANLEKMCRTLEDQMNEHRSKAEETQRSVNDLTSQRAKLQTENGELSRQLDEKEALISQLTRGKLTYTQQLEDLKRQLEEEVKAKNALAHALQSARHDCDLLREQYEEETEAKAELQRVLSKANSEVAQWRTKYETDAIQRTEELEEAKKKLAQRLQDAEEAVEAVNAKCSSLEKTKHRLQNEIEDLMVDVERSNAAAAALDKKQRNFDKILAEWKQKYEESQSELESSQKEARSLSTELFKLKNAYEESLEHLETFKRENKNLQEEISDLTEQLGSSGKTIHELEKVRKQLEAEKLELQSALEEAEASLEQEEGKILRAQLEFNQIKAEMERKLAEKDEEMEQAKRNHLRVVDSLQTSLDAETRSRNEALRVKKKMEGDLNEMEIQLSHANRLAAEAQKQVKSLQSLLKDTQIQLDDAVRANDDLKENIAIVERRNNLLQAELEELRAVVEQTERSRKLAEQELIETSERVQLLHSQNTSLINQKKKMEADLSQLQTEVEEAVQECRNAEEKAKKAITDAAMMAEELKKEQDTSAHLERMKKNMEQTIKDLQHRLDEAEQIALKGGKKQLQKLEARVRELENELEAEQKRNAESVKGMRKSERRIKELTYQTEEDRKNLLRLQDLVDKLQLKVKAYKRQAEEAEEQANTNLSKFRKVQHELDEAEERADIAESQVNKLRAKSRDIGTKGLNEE
T1 sequence (P85100 whole entry partner): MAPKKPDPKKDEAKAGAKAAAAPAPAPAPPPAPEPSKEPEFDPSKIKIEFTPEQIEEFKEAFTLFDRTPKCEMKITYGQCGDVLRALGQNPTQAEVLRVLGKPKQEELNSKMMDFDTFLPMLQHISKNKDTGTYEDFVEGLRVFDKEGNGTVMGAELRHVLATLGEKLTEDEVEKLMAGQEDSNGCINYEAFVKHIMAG
T1 sequence (Q3SZE5 whole entry partner): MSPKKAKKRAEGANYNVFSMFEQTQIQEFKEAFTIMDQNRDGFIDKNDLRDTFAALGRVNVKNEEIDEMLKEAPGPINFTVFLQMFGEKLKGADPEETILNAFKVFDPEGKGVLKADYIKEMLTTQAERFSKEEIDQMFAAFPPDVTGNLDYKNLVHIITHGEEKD

Row | SMILES | IC50 (bovine cardiac myosin [1]; read-out: bcMF pCa_6 IC50 MEAN) | IC50 (bovine cardiac myosin [1]; read-out: bcMF pCa 6 IC50) | IC50 (bovine cardiac myosin [2]) | % GSH-adduct (+NADPH, +GSH) relative to parent (−NADPH, −GSH) ([3]; human liver microsomes, 30 μM, 60 min) | Glutathione Adduct Detection in Human Liver Microsome Incubations (single measurement) [3] | Glutathione Adduct Detection in Human Liver Microsome Incubations, Average (triple measurements) [3] | solubility kinetic at 1.5 h (physchem) | Cardiac selectivity ratio vs rbskMF pCa 6 IC50 (rabbit skeletal myosin)
1 | O=c1[nH]c2c(c(=O)n1C1CCOCC1)C[C@H](F)[C@H](c1cccc(F)c1)N2 [Compound 1, (6S,7S)-6-fluoro-7-(3-fluorophenyl)-3-(tetrahydro-2H-pyran-4-yl)-5,6,7,8-tetrahydropyrido[2,3-d]pyrimidine-2, 4(1H, 3H)-dione] | 3.03 µM | 3.03 µM | 3.7 µM | Not Detected | Not Detected | Not Detected |  | 7.38
2 | O=c1[nH]c2c(c(=O)n1C1CCOCC1)C[C@@H](F)[C@H](c1cccc(F)c1)N2 [Compound 2, (6R,7S)-6-fluoro-7-(3-fluorophenyl)-3-(tetrahydro-2H-pyran-4-yl)-5,6,7,8-tetrahydropyrido[2,3-d]pyrimidine-2,4(1H, 3H)-dione] | 2.13 µM | 2.13 µM | 3.11 µM |  | Not Detected | Not Detected |  | 10.71
3 | Cc1ccc(F)c([C@H]2Nc3[nH]c(=O)n(C4CCOCC4)c(=O)c3C[C@H]2F)c1 [Compound 5, (6R,7R)-6-fluoro-7-(2-fluoro-5-methylphenyl)-3-(tetrahydro-2H-pyran-4-yl)-5,6,7,8-tetrahydropyrido[2,3-d]pyrimidine-2,4(1H, 3H)-dione] | 20.8 µM |  |  |  | Not Detected | Not Detected |  | 
4 | Cc1ccc(F)c([C@H]2Nc3[nH]c(=O)n(C4CCOCC4)c(=O)c3C[C@@H]2F)c1 [Compound 6, (6S,7R)-6-fluoro-7-(2-fluoro-5-methylphenyl)-3-(tetrahydro-2H-pyran-4-yl)-5,6,7,8-tetrahydropyrido[2,3-d]pyrimidine-2,4(1H,3H)-dione] | 26.4 µM |  |  |  | Not Detected | Not Detected |  | 
5 | O=c1[nH]c2c(c(=O)n1C1CCOCC1)C[C@@H](F)[C@H](c1ccccc1F)N2 [Compound 8] | 1.46 µM |  |  |  | Not Detected | Not Detected |  | 
6 | O=c1[nH]c2c(c(=O)n1C1CCOCC1)C[C@H](F)[C@H](c1ccccc1F)N2 [Compound 9] | 5.59 µM |  |  |  | Not Detected | Not Detected |  | 
7 | O=c1[nH]c2c(c(=O)n1C1CCOCC1)C[C@@H](F)[C@@H](c1cccc(F)c1)N2 [Compound 12] | 23.2 µM |  |  |  | Not Detected | Not Detected |  | 
8 | COC(=O)[C@H]1[C@H]2C[C@@H]3c4[nH]c5cc(OC)ccc5c4CCN3C[C@H]2C[C@@H](OC(=O)c2cc(OC)c(OC)c(OC)c2)[C@@H]1OC [Reserpine] |  |  |  |  |  |  | < 15 µM | 

The next lines start with results.

Row | IC50 (bovine cardiac myosin [1]; read-out: bcMF pCa_6 IC50 MEAN) | IC50 (bovine cardiac myosin [1]; read-out: bcMF pCa 6 IC50) | IC50 (bovine cardiac myosin [2]) | % GSH-adduct (+NADPH, +GSH) relative to parent (−NADPH, −GSH) ([3]; human liver microsomes, 30 μM, 60 min) | Glutathione Adduct Detection in Human Liver Microsome Incubations (single measurement) [3] | Glutathione Adduct Detection in Human Liver Microsome Incubations, Average (triple measurements) [3] | solubility kinetic at 1.5 h (physchem) | SMILES | Cardiac selectivity ratio vs rbskMF pCa 6 IC50 (rabbit skeletal myosin)
9 | 0.78 µM |  |  |  |  |  |  | O=c1[nH]c2c(c(=O)n1C1CCOCC1)C[C@H](F)[C@H](c1cc(CO)ccc1F)N2 | 
10 | 0.37 µM |  |  |  | Not Detected | Not Detected |  | Cc1ccc(F)c([C@@H]2Nc3[nH]c(=O)n(C4CCOCC4)c(=O)c3C[C@H]2F)c1 [Compound 4, (6R,7S)-6-fluoro-7-(2-fluoro-5-methylphenyl)-3-(tetrahydro-2H-pyran-4-yl)-5,6,7,8-tetrahydropyrido[2,3-d]pyrimidine-2,4(1H, 3H)-dione] | 
11 | 0.54 µM |  |  |  |  |  |  | C#Cc1ccc(F)c([C@@H]2Nc3[nH]c(=O)n(C4CCOCC4)c(=O)c3C[C@@H]2F)c1 [Compound 7] | 
12 | 1.02 µM |  |  |  | Not Detected | Not Detected |  | COc1ccc(F)c([C@@H]2Nc3[nH]c(=O)n(C4CCOCC4)c(=O)c3C[C@@H]2F)c1 [Compound 10] | 
13 | 0.49 µM |  |  |  | Not Detected | Not Detected |  | COc1ccc(F)c([C@@H]2Nc3[nH]c(=O)n(C4CCOCC4)c(=O)c3C[C@H]2F)c1 [Compound 11] | 
